Data reported in patent US9725442B2, “Heterocyclic derivative having PGD2 receptor antagonist activity” (Shionogi & Co., Ltd., priority 2011, dated 2017).
Like-named read-outs stand apart in the source and are kept apart here.

Columns and labels:
Human DP1 receptor = Human DP1 receptor (Homo sapiens (Human), UniProt Q13258); assay: Human DP1 inhibitory activity in DP1-expressing cell (PGD2-induced cAMP); format: cell-based
Protocol: Compounds were categorized as AA (cAMP is less than 100 nM) and A (cAMP is more than 100 nM and less than 5000 nM) as shown in Table 99 and 100.

CRTH2 = CRTH2 (Homo sapiens (Human), UniProt Q9Y5Y4); assay: CRTH2 receptor binding inhibitory activity ([3H]-PGD2 displacement, membranes of CRTH2-expressing K562 cell); conditions: [3H]-PGD2 displacement, membrane of CRTH2-expressing K562 cell, read-out: Ki
Protocol: Cell membrane was prepared from CRTH2-expressing K562 cell. The cell membrane (20 μg/well) was mixed with reaction buffer (50 mM Tris/HCl, pH 7.4, 10 mM MgCl2). Then, [^3H]-PGD2 was added to the mixture and incubated for 60 min at room temperature. […] Then, the mixture was filtrated with glass paper immediately. The filter paper was washed several times and radio activity on the filter was measured. Specific binding was defined as difference between total and non-specific binding (radio activity with 10 μM PGD2). Ki values for each compound were calculated from displacement curve.

[1] = category of cAMP IC50, human DP1 receptor expressing Jurkut cell
[2] = CRTH2 receptor binding, categorized AAAA/AAA
[3] = IC50 of PGD2 (60 nM)-induced cAMP increase, human DP1 receptor expressing Jurkut cell

Human DP1 receptor, sequence (Q13258 whole entry): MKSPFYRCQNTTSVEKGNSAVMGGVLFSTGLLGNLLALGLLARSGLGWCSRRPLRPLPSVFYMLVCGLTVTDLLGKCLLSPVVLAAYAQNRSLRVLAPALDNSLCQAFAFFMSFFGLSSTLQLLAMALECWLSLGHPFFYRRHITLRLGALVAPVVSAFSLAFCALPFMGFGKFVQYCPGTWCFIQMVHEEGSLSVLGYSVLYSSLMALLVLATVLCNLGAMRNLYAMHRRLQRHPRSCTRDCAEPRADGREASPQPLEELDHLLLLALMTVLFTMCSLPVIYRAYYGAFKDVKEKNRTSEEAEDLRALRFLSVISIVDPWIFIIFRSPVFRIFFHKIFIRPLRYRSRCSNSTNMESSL
CRTH2, sequence (Q9Y5Y4 whole entry): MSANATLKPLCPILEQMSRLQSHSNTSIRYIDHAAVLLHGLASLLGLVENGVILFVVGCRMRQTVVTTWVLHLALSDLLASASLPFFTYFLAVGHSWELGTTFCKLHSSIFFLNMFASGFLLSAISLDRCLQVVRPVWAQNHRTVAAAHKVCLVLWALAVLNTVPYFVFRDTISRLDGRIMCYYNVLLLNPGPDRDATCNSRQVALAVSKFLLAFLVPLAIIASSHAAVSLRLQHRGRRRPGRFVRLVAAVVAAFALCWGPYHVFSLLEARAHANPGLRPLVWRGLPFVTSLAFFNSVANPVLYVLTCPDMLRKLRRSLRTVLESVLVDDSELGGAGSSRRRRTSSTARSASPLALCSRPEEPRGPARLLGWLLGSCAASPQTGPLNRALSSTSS

Row | Structure (SMILES) | IC50 (Human DP1 receptor; [1]) [nM] | Ki (CRTH2; [2]) [nM] | IC50 (Human DP1 receptor; [3]) [nM] | Ki (CRTH2) [nM]
1 | CCOc1ccc(S(=O)(=O)N2C[C@@H](C)[C@@H](n3nc(C(O)C(=O)O)c4ccccc43)C2)cc1 (single isomer, unassigned) [Compound I-307] | 100 to 5000 | 100 to 5000 | – | –
2 | CC(C)Oc1ccc(S(=O)(=O)N2CC[C@@H](n3nc(CC(=O)O)c4ccc(F)cc43)[C@H]2C)cc1 [Compound I-1] | 100 to 5000 | 100 to 5000 | – | –
3 | CC(C)Oc1ccc(S(=O)(=O)N2C[C@H](n3nc(CC(=O)O)c4ccc(F)cc43)C[C@H]2C(N)=O)cc1 [Compound I-2] | 100 to 5000 | 100 to 5000 | – | –
4 | CC(C)Oc1ccc(S(=O)(=O)N2C[C@H](n3nc(CC(=O)O)c4ccc(F)cc43)C[C@@H]2C(N)=O)cc1 [Compound I-3] | 100 to 5000 | 100 to 5000 | 350 | –
5 | CNC(=O)[C@@H]1C[C@@H](n2nc(CC(=O)O)c3ccc(F)cc32)CN1S(=O)(=O)c1ccc(OC(C)C)cc1 [Compound I-4] | 100 to 5000 | 100 to 5000 | – | 320
6 | CC(C)Oc1ccc(S(=O)(=O)N2C[C@H](n3nc(CC(=O)O)c4ccc(F)cc43)C[C@H]2C(=O)N(C)C)cc1 [Compound I-5] | 100 to 5000 | 100 to 5000 | – | –
7 | CC(C)NC(=O)[C@@H]1C[C@@H](n2nc(CC(=O)O)c3ccc(F)cc32)CN1S(=O)(=O)c1ccc(OC(C)C)cc1 [Compound I-6] | 100 to 5000 | 100 to 5000 | – | –
8 | CC(C)Oc1ccc(S(=O)(=O)N2C[C@@H](n3nc(CC(=O)O)c4ccc(F)cc43)C[C@H]2C)cc1 [Compound I-8] | 100 to 5000 | < 100 | – | –
9 | CC(C)Oc1ccc(S(=O)(=O)N2C[C@H](n3nc(CC(=O)O)c4ccc(F)cc43)C[C@H]2C)cc1 [Compound I-10] | 100 to 5000 | < 100 | – | 8.2
10 | CC(C)Oc1ccc(S(=O)(=O)N2C[C@H](n3nc(CC(=O)O)c4ccc(F)cc43)C[C@H]2CF)cc1 [Compound I-12] | 100 to 5000 | < 100 | – | –
11 | CC(C)Oc1ccc(S(=O)(=O)N2C[C@H](n3nc(CC(=O)O)c4ccc(F)cc43)C[C@H]2CC#N)cc1 [Compound I-14] | 100 to 5000 | < 100 | – | –
12 | CC(C)Oc1ccc(S(=O)(=O)N2C[C@H](n3nc(CC(=O)O)c4cc(Cl)ccc43)C[C@H]2C)cc1 [Compound I-15] | 100 to 5000 | < 100 | – | 56
13 | COC[C@@H]1C[C@@H](n2nc(CC(=O)O)c3ccc(F)cc32)CN1S(=O)(=O)c1ccc(OC(C)C)cc1 [Compound I-16] | 100 to 5000 | < 100 | – | –
14 | CC(C)Oc1ccc(S(=O)(=O)N2C[C@H](n3nc(CC(=O)O)c4ccc(F)cc43)C[C@@H]2CC#N)cc1 [Compound I-18] | 100 to 5000 | < 100 | – | –
15 | CC(C)Oc1ccc(S(=O)(=O)N2C[C@H](n3nc(CC(=O)O)c4ccc(F)cc43)C[C@@H]2Cn2ccnc2)cc1 [Compound I-20] | 100 to 5000 | < 100 | – | –
16 | Cc1cccn(C[C@H]2C[C@@H](n3nc(CC(=O)O)c4ccc(F)cc43)CN2S(=O)(=O)c2ccc(OC(C)C)cc2)c1=O [Compound I-23] | 100 to 5000 | < 100 | – | –

Row | Structure (SMILES) | IC50 (Human DP1 receptor; [1]) [nM] | Ki (CRTH2; [2]) [nM] | IC50 (Human DP1 receptor; [3]) [nM] | Ki (CRTH2) [nM]
17 | CC(C)Oc1ccc(S(=O)(=O)N2C[C@H](n3nc(CC(=O)O)c4ccc(F)cc43)CC2(C)C)cc1 [Compound I-24] | 100 to 5000 | < 100 | – | –
18 | CC(C)Oc1ccc(S(=O)(=O)N2C[C@H](O)[C@@H](n3nc(CC(=O)O)c4ccc(F)cc43)C2)cc1 [Compound I-25] | 100 to 5000 | < 100 | – | –
19 | CC(C)Oc1ccc(S(=O)(=O)N2CC(F)[C@@H](n3nc(CC(=O)O)c4ccc(F)cc43)C2)cc1 (some centres unmarked) [Compound I-26] | 100 to 5000 | < 100 | – | –
20 | CC(C)Oc1ccc(S(=O)(=O)N2CC(=O)C(n3nc(CC(=O)O)c4ccc(F)cc43)C2)cc1 (centres unmarked) [Compound I-27] | 100 to 5000 | < 100 | – | –
21 | CO[C@@H]1CN(S(=O)(=O)c2ccc(OC(C)C)cc2)C[C@@H]1n1nc(CC(=O)O)c2ccc(F)cc21 [Compound I-30] | 100 to 5000 | 100 to 5000 | – | 140
22 | CC(C)Oc1ccc(S(=O)(=O)N2C[C@@H](C)[C@@H](n3nc(CC(=O)O)c4ccc(Cl)cc43)C2)cc1 [Compound I-33] | – | – | – | 2.1
23 | CC(C)Oc1ccc(S(=O)(=O)N2C[C@@H](n3nc(CC(=O)O)c4ccc(F)cc43)[C@@H](C)C2)cc1 [Compound I-36] | 100 to 5000 | < 100 | – | –
24 | CC(C)Oc1ccc(S(=O)(=O)N2C[C@H](C)[C@@H](n3nc(CC(=O)O)c4cccc(F)c43)C2)cc1 [Compound I-70] | – | < 100 | – | –
25 | CCOc1ccc(S(=O)(=O)N2C[C@@H](n3nc(CC(=O)O)c4ccc(F)cc43)[C@@H](C)[C@@H]2C(N)=O)cc1 [Compound I-154] | 100 to 5000 | – | – | –
26 | CCOc1ccc(S(=O)(=O)N2C[C@@H](C)[C@@H](n3nc(CC(=O)OC(C)C)c4ccccc43)C2)cc1 [Compound I-257] | 100 to 5000 | – | – | –
27 | CC(C)Oc1ccc(S(=O)(=O)N2C[C@H](n3nc(CC(=O)O)c4ccc(F)cc43)C[C@@H]2COCC(O)CO)cc1 (some centres unmarked) [Compound I-281] | 100 to 5000 | – | – | –
28 | CCOc1ccc(S(=O)(=O)N2C[C@H](n3nc(CC(=O)O)c4ccccc43)C[C@H]2C(N)=O)cc1 [Compound I-321] | 100 to 5000 | – | – | –
29 | CCOc1ccc(S(=O)(=O)N2C[C@@H](C)[C@@H](n3nc(C(F)C(=O)O)c4ccccc43)C2)cc1 (some centres unmarked) [Compound I-337] | 100 to 5000 | – | – | –
30 | CC(C)Oc1ccc(S(=O)(=O)N2C[C@H](n3nc(CC(=O)O)c4ccc(F)cc43)C[C@@H]2COc2ccccn2)cc1 [Compound I-339] | 100 to 5000 | – | – | –
31 | CC(C)Oc1ccc(S(=O)(=O)N2C[C@H](n3nc(CC(=O)O)c4ccc(F)cc43)C[C@@H]2COc2ccccc2F)cc1 [Compound I-340] | 100 to 5000 | – | – | –
32 | CCOc1ccc(S(=O)(=O)N2C[C@@H](n3nc(CC(=O)O)c4ccccc43)[C@@H]3COC[C@@H]32)cc1 [Compound I-367] | – | 100 to 5000 | – | 100

Now from value to compound:

Row | IC50 (Human DP1 receptor; [1]) [nM] | Ki (CRTH2; [2]) [nM] | IC50 (Human DP1 receptor; [3]) [nM] | Ki (CRTH2) [nM] | Structure (SMILES)
33 | 100 to 5000 | < 100 | – | – | CCOc1ccc(S(=O)(=O)N2C[C@H](n3nc(CC(=O)O)c4ccccc43)[C@@](C)(F)C2)cn1 (racemic) [Compound I-207]
34 | 100 to 5000 | < 100 | – | – | COc1ccc(S(=O)(=O)N2C[C@H](n3nc(CC(=O)O)c4ccccc43)[C@@](C)(F)C2)cn1 (racemic) [Compound I-208]
35 | 100 to 5000 | < 100 | – | – | C[C@]1(F)CN(S(=O)(=O)c2ccc(F)cc2)C[C@@H]1n1nc(CC(=O)O)c2ccccc21 (racemic) [Compound I-227]
36 | < 100 | < 100 | – | – | CCOc1ccc(S(=O)(=O)N2C[C@H](n3nc(CC(=O)O)c4ccccc43)[C@@](C)(F)C2)cc1 (racemic) [Compound I-228]
37 | 100 to 5000 | 100 to 5000 | – | – | CCOc1ccc(S(=O)(=O)N2C[C@@H](C)[C@@H](n3nc(C(O)C(=O)O)c4ccccc43)C2)cc1 (single isomer, unassigned) [Compound I-306]
38 | < 100 | 100 to 5000 | 99 | – | CC(C)Oc1ccc(S(=O)(=O)N2C[C@H](n3nc(CC(=O)O)c4ccc(F)cc43)C[C@@H]2CO)cc1 [Compound I-11]
39 | < 100 | < 100 | – | – | CC(C)Oc1ccc(S(=O)(=O)N2C[C@H](n3nc(CC(=O)O)c4ccc(F)cc43)C[C@@H]2CF)cc1 [Compound I-13]
40 | < 100 | < 100 | – | – | COC[C@H]1C[C@@H](n2nc(CC(=O)O)c3ccc(F)cc32)CN1S(=O)(=O)c1ccc(OC(C)C)cc1 [Compound I-17]
41 | < 100 | < 100 | – | – | CC(C)Oc1ccc(S(=O)(=O)N2C[C@H](n3nc(CC(=O)O)c4ccc(F)cc43)C[C@@H]2C(F)F)cc1 [Compound I-22]
42 | < 100 | 100 to 5000 | – | – | CC(C)Oc1ccc(S(=O)(=O)N2CC=C(n3nc(CC(=O)O)c4ccc(F)cc43)C2)cc1 [Compound I-28]
43 | < 100 | < 100 | – | – | CC(C)Oc1ccc(S(=O)(=O)N2C[C@@H](C)[C@@H](n3nc(CC(=O)O)c4ccc(F)cc43)C2)cc1 [Compound I-29]
44 | < 100 | < 100 | – | – | C=CC[C@@H]1CN(S(=O)(=O)c2ccc(OC(C)C)cc2)C[C@@H]1n1nc(CC(=O)O)c2ccc(F)cc21 [Compound I-32]
45 | < 100 | < 100 | – | 77 | CCC[C@@H]1CN(S(=O)(=O)c2ccc(OC(C)C)cc2)C[C@@H]1n1nc(CC(=O)O)c2ccc(F)cc21 [Compound I-34]
46 | < 100 | < 100 | – | – | CC(C)Oc1ccc(S(=O)(=O)N2C[C@@H](C)[C@@H](n3nc(CC(=O)O)c4ccccc43)C2)cc1 [Compound I-35]
47 | < 100 | < 100 | – | – | C=C[C@@H]1CN(S(=O)(=O)c2ccc(OC(C)C)cc2)C[C@@H]1n1nc(CC(=O)O)c2ccc(F)cc21 [Compound I-38]
48 | < 100 | < 100 | – | – | CC[C@@H]1CN(S(=O)(=O)c2ccc(OC(C)C)cc2)C[C@@H]1n1nc(CC(=O)O)c2ccc(F)cc21 [Compound I-39]
49 | < 100 | – | – | – | Cc1ccc2c(CC(=O)O)nn([C@H]3CN(S(=O)(=O)c4ccc(OC(C)C)cc4)C[C@@]3(C)F)c2c1 [Compound I-89]
50 | < 100 | – | – | – | CCOc1ccc(S(=O)(=O)N2C[C@@H](C)[C@@H](n3nc(C(C)(OC)C(=O)O)c4ccccc43)C2)cc1 (some centres unmarked) [Compound I-286]
51 | < 100 | – | – | – | CCOc1ccc(S(=O)(=O)N2C[C@H](n3nc(CC(=O)O)c4ccccc43)[C@@](C)(F)C2)cc1 [Compound I-309]
52 | < 100 | – | – | – | CCOc1ccc(S(=O)(=O)N2C[C@@H](C)[C@@H](n3nc(C(C)(C)C(=O)O)c4ccccc43)C2)cc1 [Compound I-335]
